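Compound exposure: 48 hours, 5 concentrations, 96-well plates. At the GI50, growth is halved. TGI: total growth inhibition.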
Assays:
Experiment in all cases: growth of human tumour cells (NCI), 48 h
[1] = system: 786-0 renal
[2] = system: A498 renal
[3] = system: A549 NSCLC
[4] = system: ACHN renal
[5] = system: BT-549 breast
[6] = system: CAKI-1 renal
[7] = system: CCRF-CEM leukemia
[8] = system: COLO 205 colon
[9] = system: DU-145 prostate
[10] = system: EKVX NSCLC
[11] = system: HCC-2998 colon
[12] = system: HCT-116 colon
[13] = system: HCT-15 colon
[14] = system: HL-60(TB) leukemia
[15] = system: HOP-62 NSCLC
[16] = system: HOP-92 NSCLC
[17] = system: HS 578T breast
[18] = system: HT29 colon
[19] = system: IGROV1 ovarian
[20] = system: KM12 colon
[21] = system: LOX IMVI melanoma
[22] = system: M14 melanoma
[23] = system: MALME-3M melanoma
[24] = system: MCF7 breast
[25] = system: MDA-MB-231 breast
[26] = system: MDA-MB-435
[27] = system: MOLT-4 leukemia
[28] = system: NCI-H226 lung
[29] = system: NCI-H23 lung
[30] = system: NCI-H460 lung
[31] = system: NCI-H522 lung
[32] = system: NCI/ADR-RES ovarian
[33] = system: OVCAR-3 ovarian
[34] = system: OVCAR-4 ovarian
[35] = system: OVCAR-5 ovarian
[36] = system: OVCAR-8 ovarian
[37] = system: PC-3 prostate
[38] = system: RPMI-8226 leukemia
[39] = system: RXF 393 renal
[40] = system: SF-268 CNS
[41] = system: SF-295 CNS
[42] = system: SF-539 CNS
[43] = system: SK-MEL-2 melanoma
[44] = system: SK-MEL-28 melanoma
[45] = system: SK-MEL-5 melanoma
[46] = system: SK-OV-3 ovarian
[47] = system: SN12C renal
[48] = system: SNB-19 CNS
[49] = system: SNB-75 CNS
[50] = system: SR leukemia
[51] = system: SW-620 colon
[52] = system: T-47D breast
[53] = system: TK-10 renal
[54] = system: U251 CNS
[55] = system: UACC-257 melanoma
[56] = system: UACC-62 melanoma
[57] = system: UO-31 renal
[58] = system: K-562 leukemia

Clc1ccc(-c2ccc(CNCC3CCNCC3)o2)c(-c2ccccc2)c1
GI50 [1]: 1.58 µM | TGI [1]: 3.01 µM | GI50 [2]: 1.71 µM | TGI [2]: 3.24 µM | GI50 [3]: 1.79 µM | TGI [3]: 3.56 µM | GI50 [4]: 1.67 µM | TGI [4]: 3.06 µM | GI50 [5]: 1.71 µM | TGI [5]: 3.2 µM | GI50 [6]: 1.51 µM | TGI [6]: 2900 nM | GI50 [7]: 0.557 µM | TGI [7]: 2310 nM | GI50 [8]: 1.64 µM | TGI [8]: 3.36 µM | GI50 [9]: 1.82 µM | TGI [9]: 3.33 µM | GI50 [10]: 1.59 µM | TGI [10]: 2950 nM | GI50 [11]: 1.62 µM | TGI [11]: 3.2 µM | GI50 [12]: 1.24 µM | TGI [12]: 2540 nM | GI50 [13]: 1.19 µM | TGI [13]: 2600 nM | GI50 [14]: 1.8 µM | TGI [14]: 3.69 µM | GI50 [15]: 1.65 µM | TGI [15]: 3.27 µM | GI50 [16]: 1.01 µM | TGI [16]: 2230 nM | GI50 [17]: 1.63 µM | TGI [17]: 3.42 µM | GI50 [18]: 1.44 µM | TGI [18]: 2.89 µM | GI50 [19]: 1.39 µM | TGI [19]: 2930 nM | GI50 [20]: 1.79 µM | TGI [20]: 3.62 µM | GI50 [21]: 1.54 µM | TGI [21]: 3.03 µM | GI50 [22]: 1.63 µM | TGI [22]: 3.11 µM | GI50 [23]: 1.88 µM | TGI [23]: 3.54 µM | GI50 [24]: 1.56 µM | TGI [24]: 3.3 µM | GI50 [25]: 1.36 µM | TGI [25]: 2850 nM | GI50 [26]: 1.61 µM | TGI [26]: 3.05 µM | GI50 [27]: 1.54 µM | TGI [27]: 3.42 µM | GI50 [28]: 1.66 µM | TGI [28]: 3.68 µM | GI50 [29]: 1.71 µM | TGI [29]: 3.32 µM | GI50 [30]: 1.71 µM | TGI [30]: 3.33 µM | GI50 [31]: 1.85 µM | TGI [31]: 3.63 µM | GI50 [32]: 1.71 µM | TGI [32]: 3.3 µM | GI50 [33]: 1.74 µM | TGI [33]: 3.46 µM | GI50 [34]: 1.85 µM | TGI [34]: 3.54 µM | GI50 [35]: 1.61 µM | TGI [35]: 3.04 µM | GI50 [36]: 1.87 µM | TGI [36]: 3.5 µM | GI50 [37]: 1.38 µM | TGI [37]: 2760 nM | GI50 [38]: 1.3 µM | TGI [38]: 3.19 µM | GI50 [39]: 1360 nM | TGI [39]: 2.79 µM | GI50 [40]: 1.62 µM | TGI [40]: 3.27 µM | GI50 [41]: 1.57 µM | TGI [41]: 3000 nM | GI50 [42]: 1.65 µM | TGI [42]: 3.12 µM | GI50 [43]: 1.76 µM | TGI [43]: 3.31 µM | GI50 [44]: 1.79 µM | TGI [44]: 3.27 µM | GI50 [45]: 1.66 µM | TGI [45]: 3.05 µM | GI50 [46]: 1.87 µM | TGI [46]: 3.33 µM | GI50 [47]: 1.54 µM | TGI [47]: 3.03 µM | GI50 [48]: 1.64 µM | TGI [48]: 3.16 µM | GI50 [49]: 1.39 µM | TGI [49]: 2.81 µM | GI50 [50]: 0.347 µM | TGI [50]: 1.27 µM | GI50 [51]: 1.38 µM | TGI [51]: 2960 nM | GI50 [52]: 1.74 µM | TGI [52]: 3.82 µM | GI50 [53]: 1.62 µM | TGI [53]: 3.13 µM | GI50 [54]: 1.56 µM | TGI [54]: 3.01 µM | GI50 [55]: 2.03 µM | TGI [55]: 3.57 µM | GI50 [56]: 1750 nM | TGI [56]: 3.27 µM | GI50 [57]: 1370 nM | TGI [57]: 2.76 µM

CC(=O)N1CCN([C@H]2CCC[C@@H](NC(=O)c3cc4c(F)ccc(C)c4[nH]3)C2)CC1
GI50 [1]: 36.6 µM | TGI [1]: > 100 µM | GI50 [2]: 14 µM | TGI [2]: > 100 µM | GI50 [3]: 10.8 µM | TGI [3]: > 100 µM | GI50 [4]: 32.5 µM | TGI [4]: > 100 µM | GI50 [5]: 15.6 µM | TGI [5]: > 100 µM | GI50 [6]: 11.2 µM | TGI [6]: > 100000 nM | GI50 [7]: 21.6 µM | TGI [7]: > 100000 nM | GI50 [8]: 24.5 µM | TGI [8]: > 100 µM | GI50 [9]: 24.6 µM | TGI [9]: > 100 µM | GI50 [10]: 10.7 µM | TGI [10]: > 100000 nM | GI50 [11]: 18.7 µM | TGI [11]: > 100 µM | GI50 [12]: 27.5 µM | TGI [12]: > 100000 nM | GI50 [13]: 19.9 µM | TGI [13]: > 100000 nM | GI50 [14]: 62.5 µM | TGI [14]: > 100 µM | GI50 [15]: 15.3 µM | TGI [15]: > 100 µM | GI50 [16]: 18.4 µM | TGI [16]: > 100000 nM | GI50 [17]: 4.66 µM | TGI [17]: 47.6 µM | GI50 [18]: 16.7 µM | TGI [18]: 71.6 µM | GI50 [19]: 4.83 µM | TGI [19]: > 100000 nM | GI50 [58]: 31.1 µM | TGI [58]: > 100 µM | GI50 [20]: 44.3 µM | TGI [20]: > 100 µM | GI50 [21]: 16.4 µM | TGI [21]: > 100 µM | GI50 [22]: 15.3 µM | TGI [22]: 34.3 µM | GI50 [23]: 10.1 µM | TGI [23]: 29.8 µM | GI50 [24]: 13.5 µM | TGI [24]: > 100 µM | GI50 [25]: 22.3 µM | TGI [25]: > 100000 nM | GI50 [26]: 24.6 µM | TGI [26]: > 100 µM | GI50 [27]: 19.4 µM | TGI [27]: > 100 µM | GI50 [28]: 16.9 µM | TGI [28]: > 100 µM | GI50 [29]: 20.3 µM | TGI [29]: > 100 µM | GI50 [30]: 18.3 µM | TGI [30]: > 100 µM | GI50 [31]: 10.8 µM | TGI [31]: > 100 µM | GI50 [32]: 69.9 µM | TGI [32]: > 100 µM | GI50 [33]: 42.9 µM | TGI [33]: > 100 µM | GI50 [34]: 11.3 µM | TGI [34]: > 100 µM | GI50 [35]: 39.9 µM | TGI [35]: > 100 µM | GI50 [36]: 46.5 µM | TGI [36]: > 100 µM | GI50 [37]: 26.1 µM | TGI [37]: > 100000 nM | GI50 [38]: 24.9 µM | TGI [38]: > 100 µM | GI50 [39]: 2170 nM | TGI [39]: 9.61 µM | GI50 [40]: 23 µM | TGI [40]: > 100 µM | GI50 [41]: 10.8 µM | TGI [41]: > 100000 nM | GI50 [42]: 13.8 µM | TGI [42]: > 100 µM | GI50 [43]: 34.9 µM | TGI [43]: > 100 µM | GI50 [44]: 13.5 µM | TGI [44]: 29 µM | GI50 [45]: 15.1 µM | TGI [45]: 28.5 µM | GI50 [46]: 37.2 µM | TGI [46]: > 100 µM | GI50 [47]: 21.9 µM | TGI [47]: > 100 µM | GI50 [48]: 33.3 µM | TGI [48]: > 100 µM | GI50 [49]: 5.43 µM | TGI [49]: 68.1 µM | GI50 [50]: 14 µM | TGI [50]: 81 µM | GI50 [51]: 85.1 µM | TGI [51]: > 100000 nM | GI50 [52]: 25.2 µM | TGI [52]: > 100 µM | GI50 [53]: 18.7 µM | TGI [53]: > 100 µM | GI50 [54]: 32.1 µM | TGI [54]: > 100 µM | GI50 [55]: 13.6 µM | TGI [55]: 27.8 µM | GI50 [57]: 1780 nM | TGI [57]: 3.91 µM

Reference: PubChem BioAssay (NCI)
